Assay results as given in patent publication US20120130117A1, “AROMATIC SULFONIUM SALT COMPOUND” (ADEKA CORPORATION, priority 2009, published 2012).

Experiment: Solubility in polyvinylphenol/tetramethylammonium hydroxide (TMAH) aqueous solution
Type: physicochemical
Settings: mass ratio of compound to polyvinylphenol in saturated solution; polyvinylphenol in 3% TMAH aqueous solution; visual check, left to stand one day
Procedure: In a screw-top tube were put 0.36 g of polyvinylphenol (S-2P from Maruzen Petrochemical Co., Ltd.; Mw: 5800) and 10.00 g of a 3% TMAH aqueous solution and heated to dissolve. A 2.00 g portion of the resulting solution was put in another screw-top tube, and a small amount of each of the trifluoromethanesulfonate of each of compound Nos. 1 and 5 and comparative compound No. 1 (intermediate No. 4 obtained in step 1 of Example 1-4) was added thereto and heated. A visual check was made to see whether the compound dissolved. This operation was repeated until saturation. The saturated solution was allowed to stand one day to make sure that no solid precipitated. The mass ratio of each compound to the polyvinylphenol of the saturated solution was taken as a parameter of solubility.

Structure (SMILES)	Solubility (%)
O=C(c1ccccc1)c1ccc(Sc2ccc([S+](c3ccc(O)cc3)c3ccc(O)cc3)cc2)c(F)c1	70%
O=C(c1ccc(O)cc1)c1ccc(Sc2ccc([S+](c3ccc(F)cc3)c3ccc(F)cc3)cc2)c(F)c1	28%
O=C(c1ccccc1)c1ccc(Sc2ccc([S+](c3ccc(F)cc3)c3ccc(F)cc3)cc2)c(F)c1 [Comp. Compound No. 1, reference compound]	< 1%
